Experimental data as given in patent US20110294778A1, “HEPATITIS C INHIBITOR COMPOUNDS” (priority 2009, published 2011).
Read-outs that look alike come from different tables or passages of the source.

How the values were obtained:
[1] = test system: HCV genotype 1a (strain H77) subgenomic replicon with NS3 resistance mutation R155K in Huh-7 cells; test: HCV replicon RNA replication assay (NS3 protease variants), genotype 1a R155K; type: cell-based; conditions: Hepatitis C virus
[2] = test system: HCV genotype 1b (Con-1) subgenomic replicon with NS3 resistance mutation D168V in Huh-7 cells; test: HCV replicon RNA replication assay (NS3 protease variants), genotype 1b D168V; type: cell-based; conditions: Hepatitis C virus
[3] = Huh-7, 72 h, read-out: R155K 1a EC50 (nM)
[4] = Huh-7, 72 h, read-out: D168V 1b EC50 (nM)
[5] = Huh-7, read-out: R155K 1a Ec50 (nM)
[6] = Huh-7, read-out: D168V 1b Ec50 (nM)

SMILES | EC50 [1, 3] [nM] | EC50 [2, 4] [nM] | EC50 [1, 5] [nM] | EC50 [2, 6] [nM]
COc1ccc2c(O[C@@H]3C[C@H]4C(=O)N[C@]5(C(=O)NS(=O)(=O)C6CC6)C[C@H]5/C=C\CCCCC[C@H](NC(=O)N5CC(C)(C)C5)C(=O)N4C3)cc(OC(C)C)nc2c1C [Compound 2011, (2R,6S,12Z,13aS,14aR,16aS)-N-(cyclopropylsulfonyl)-6-{[(3,3-dimethylazetidin-1-yl)carbonyl]amino}-2-{[7-methoxy-8-methyl-2-(propan-2-yloxy)quinolin-4-yl]oxy}-5,16-dioxo-1,2,3,6,7,8,9,10,11,13a,14,15,16,16a-tetradecahydrocyclopropa[e]pyrrolo[1,2-a][1,4]diazacyclopentadecine-14a(5H)-carboxamide] | 6.1 | 3.9 | – | –
CCOc1cc(O[C@@H]2C[C@H]3C(=O)N[C@]4(C(=O)NS(=O)(=O)C5CC5)C[C@H]4/C=C\CCCCC[C@H](NC(=O)c4ccc(C)s4)C(=O)N3C2)c2ccc(OC)c(Br)c2n1 [Compound 1025, (2R,6S,12Z,13aS,14aR,16aS)-2-[(8-bromo-2-ethoxy-7-methoxyquinolin-4-yl)oxy]-N-(cyclopropylsulfonyl)-6-{[(5-methylthiophen-2-yl)carbonyl]amino}-5,16-dioxo-1,2,3,6,7,8,9,10,11,13a,14,15,16,16a-tetradecahydrocyclopropa[e]pyrrolo[1,2-a][1,4]diazacyclopentadecine-14a(5H)-carboxamide] | 4.1 | 0.32 | – | –
COc1ccc2c(O[C@@H]3C[C@H]4C(=O)N[C@]5(C(=O)NS(=O)(=O)C6CC6)C[C@H]5/C=C\CCCCC[C@H](NC(=O)c5ccc(C)s5)C(=O)N4C3)cc(OCC(F)(F)F)nc2c1C [Compound 1035, (2R,6S,12Z,13aS,14aR,16aS)-N-(cyclopropylsulfonyl)-2-{[7-methoxy-8-methyl-2-(2,2,2-trifluoroethoxy)quinolin-4-yl)oxy}-6-{[(5-methylthiophen-2-yl)carbonyl]amino}-5,16-dioxo-1,2,3,6,7,8,9,10,11,13a,14,15,16,16a-tetradecahydrocyclopropa[e]pyrrolo[1,2-a][1,4]diazacyclopentadecine-14a(5H)-carboxamide] | 8.2 | 0.77 | – | –
Cc1ccc(C(=O)N[C@H]2CCCCC/C=C\[C@@H]3C[C@@]3(C(=O)NS(=O)(=O)C3CC3)NC(=O)[C@@H]3C[C@@H](Oc4cc(OC(C)C)nc5c(C)c(O)ccc45)CN3C2=O)s1 [Compound 1036, (2R,6S,12Z,13aS,14aR,16aS)-N-(cyclopropylsulfonyl)-2-{[7-hydroxy-8-methyl-2-(propan-2-yloxy)quinolin-4-yl]oxy}-6-{[(5-methylthiophen-2-yl)carbonyl]amino}-5,16-dioxo-1,2,3,6,7,8,9,10,11,13a,14,15,16,16a-tetradecahydrocyclopropa[e]pyrrolo[1,2-a][1,4]diazacyclopentadecine-14a(5H)-carboxamide] | 3.2 | 1.3 | – | –
COc1ccc2c(O[C@@H]3C[C@H]4C(=O)N[C@]5(C(=O)NS(=O)(=O)C6(C)CC6)C[C@H]5/C=C\CCCCC[C@H](NC(=O)c5ccn(C)n5)C(=O)N4C3)cc(OC3CC3)nc2c1C [Compound 1028, (2R,6S,12Z,13aS,14aR,16aS)-2-{[2-(cyclopropyloxy)-7-methoxy-8-methylquinolin-4-yl]oxy}-N-[(1-methylcyclopropyl)sulfonyl]-6-{[(1-methyl-1H-pyrazol-3-yl)carbonyl]amino}-5,16-dioxo-1,2,3,6,7,8,9,10,11,13a,14,15,16,16a-tetradecahydrocyclopropa[e]pyrrolo[1,2-a][1,4]diazacyclopentadecine-14a(5H)-carboxamide] | 3.7 | 0.37 | – | –
COc1ccc2c(O[C@@H]3C[C@H]4C(=O)N[C@]5(C(=O)NS(=O)(=O)C6CC6)C[C@H]5/C=C\CCCCC[C@H](NC(=O)N5CCC5)C(=O)N4C3)cc(OC(C)C)nc2c1C [Compound 2005, (2R,6S,12Z,13aS,14aR,16aS)-6-[(azetidin-1-ylcarbonyl)amino]-N-(cyclopropylsulfonyl)-2-{[7-methoxy-8-methyl-2-(propan-2-yloxy)quinolin-4-yl]oxy}-5,16-dioxo-1,2,3,6,7,8,9,10,11,13a,14,15,16,16a-tetradecahydrocyclopropa[e]pyrrolo[1,2-a][1,4]diazacyclopentadecine-14a(5H)-carboxamide] | 4.8 | 0.82 | – | –
COc1ccc2c(C[C@H]3CC4C(=O)N(C)CCCC/C=C\[C@H]5C[C@]5(C(=O)NS(=O)(=O)C5CC5)NC(=O)[C@@H]4C3)cc(-c3nc(C(C)C)cs3)nc2c1C (stereo partly shown) [reference compound] | – | – | 300 | 4400
CCn1ccc(C(=O)N[C@H]2CCCCC/C=C\[C@@H]3C[C@@]3(C(=O)NS(=O)(=O)C3(C)CC3)NC(=O)[C@@H]3C[C@@H](Oc4cc(OC(C)C)nc5c(C)c(OC)ccc45)CN3C2=O)n1 [Compound 1019, (2R,6S,12Z,13aS,14aR,16aS)-6-{[(1-ethyl-1H-pyrazol-3-yl)carbonyl]amino}-2-{[7-methoxy-8-methyl-2-(propan-2-yloxy)quinolin-4-yl]oxy}-N-[(1-methylcyclopropyl)sulfonyl]-5,16-dioxo-1,2,3,6,7,8,9,10,11,13a,14,15,16,16a-tetradecahydrocyclopropa[e]pyrrolo[1,2-a][1,4]diazacyclopentadecine-14a(5H)-carboxamide] | 0.88 | 0.16 | – | –
CCOc1cc(O[C@@H]2C[C@H]3C(=O)N[C@]4(C(=O)NS(=O)(=O)C5CC5)C[C@H]4/C=C\CCCCC[C@H](NC(=O)c4ccc(COC)s4)C(=O)N3C2)c2ccc(OC)c(C)c2n1 [Compound 1014, (2R,6S,12Z,13aS,14aR,16aS)-N-(cyclopropylsulfonyl)-2-[(2-ethoxy-7-methoxy-8-methylquinolin-4-yl)oxy]-6-({[5-(methoxymethyl)thiophen-2-yl]carbonyl}amino)-5,16-dioxo-1,2,3,6,7,8,9,10,11,13a,14,15,16,16a-tetradecahydrocyclopropa[e]pyrrolo[1,2-a][1,4]diazacyclopentadecine-14a(5H)-carboxamide] | 8.3 | 0.31 | – | –
COc1ccc2c(O[C@@H]3C[C@H]4C(=O)N[C@]5(C(=O)NS(=O)(=O)C6(C)CC6)C[C@H]5/C=C\CCCCC[C@H](NC(=O)N5CCC(F)(F)C5)C(=O)N4C3)cc(OC(C)C)nc2c1C [Compound 2004, (2R,6S,12Z,13aS,14aR,16aS)-6-{[(3,3-difluoropyrrolidin-1-yl)carbonyl]amino}-2-{[7-methoxy-8-methyl-2-(propan-2-yloxy)quinolin-4-yl]oxy}-N-[(1-methylcyclopropyl)sulfonyl]-5,16-dioxo-1,2,3,6,7,8,9,10,11,13a,14,15,16,16a-tetradecahydrocyclopropa[e]pyrrolo[1,2-a][1,4]diazacyclopentadecine-14a(5H)-carboxamide] | 8.2 | 1.6 | – | –
CC(C)(C)OC(=O)N[C@H]1CCCCC/C=C\C2C[C@@]2(C(=O)NS(=O)(=O)C2CC2)NC(=O)[C@@H]2C[C@@H](OC(=O)N3Cc4cccc(F)c4C3)CN2C1=O (stereo partly shown) [reference compound] | – | – | 690 | 120
COc1ccc2c(O[C@@H]3C[C@H]4C(=O)N[C@]5(C(=O)NS(=O)(=O)C6CC6)C[C@H]5/C=C\CCCCC[C@H](NC(=O)c5cnn(C)n5)C(=O)N4C3)cc(OC(C)C)nc2c1C [Compound 1013, (2R,6S,12Z,13aS,14aR,16aS)-N-(cyclopropylsulfonyl)-2-{[7-methoxy-8-methyl-2-(propan-2-yloxy)quinolin-4-yl]oxy}-6-{[(2-methyl-2H-1,2,3-triazol-4-yl)carbonyl]amino}-5,16-dioxo-1,2,3,6,7,8,9,10,11,13a,14,15,16,16a-tetradecahydrocyclopropa[e]pyrrolo[1,2-a][1,4]diazacyclopentadecine-14a(5H)-carboxamide] | 7.8 | 0.52 | – | –
Cc1c(O)ccc2c(O[C@@H]3C[C@H]4C(=O)N[C@]5(C(=O)NS(=O)(=O)C6CC6)C[C@H]5/C=C\CCCCC[C@H](NC(=O)c5ccn(C)n5)C(=O)N4C3)cc(OC(C)C)nc12 [Compound 1037, (2R,6S,12Z,13aS,14aR,16aS)-N-(cyclopropylsulfonyl)-2-{[7-hydroxy-8-methyl-2-(propan-2-yloxy)quinolin-4-yl]oxy}-6-{[(1-methyl-1H-pyrazol-3-yl)carbonyl]amino}-5,16-dioxo-1,2,3,6,7,8,9,10,11,13a,14,15,16,16a-tetradecahydrocyclopropa[e]pyrrolo[1,2-a][1,4]diazacyclopentadecine-14a(5H)-carboxamide] | 4.3 | 3.7 | – | –
COc1ccc2c(O[C@@H]3C[C@H]4C(=O)N[C@]5(C(=O)NS(=O)(=O)C6CC6)C[C@H]5/C=C\CCCCC[C@H](NC(=O)c5cc[nH]n5)C(=O)N4C3)cc(OC(C)C)nc2c1C [Compound 1016, (2R,6S,12Z,13aS,14aR,16aS)-N-(cyclopropylsulfonyl)-2-{[7-methoxy-8-methyl-2-(propan-2-yloxy)quinolin-4-yl]oxy}-5,16-dioxo-6-[(1H-pyrazol-3-ylcarbonyl)amino]-1,2,3,6,7,8,9,10,11,13a,14,15,16,16a-tetradecahydrocyclopropa[e]pyrrolo[1,2-a][1,4]diazacyclopentadecine-14a(5H)-carboxamide] | – | 0.92 | – | –
COc1ccc2c(O[C@@H]3C[C@H]4C(=O)N[C@]5(C(=O)NS(=O)(=O)C6CC6)C[C@H]5/C=C\CCCCC[C@H](NC(=O)c5ccc(C)s5)C(=O)N4C3)cc(OC(C)C)nc2c1C [Compound 1007, (2R,6S,12Z,13aS,14aR,16aS)-N-(cyclopropylsulfonyl)-2-{[7-methoxy-8-methyl-2-(propan-2-yloxy)quinolin-4-yl]oxy}-6-{[(5-methylthiophen-2-yl)carbonyl]amino}-5,16-dioxo-1,2,3,6,7,8,9,10,11,13a,14,15,16,16a-tetradecahydrocyclopropa[e]pyrrolo[1,2-a][1,4]diazacyclopentadecine-14a(5H)-carboxamide] | – | 0.25 | – | –
